According to patent US9139592B2, “Modulators of Nrf2 and uses thereof” (TRT PHARMA INC., priority 2010, dated 2015):
Entries after “also recorded” stand apart in the source; their conditions may differ.

Assays:
Assay type in all cases: cell-based
[1] = tested on: Nrf2 nuclear translocation in HepG2 cells; experiment: Western blot of nuclear Nrf2 (Nrf2 nuclear translocation) in HepG2 cells; details: 24 h
Method: (§1) Cells are treated with test compounds at designated concentrations and are harvested at 24 h. Sixty microgram of cell-lysate protein and 35 ug of nuclear extract are loaded into each lane, and electrophoresed through a 4-20% gradient SDS-PAGE gel (Bio-Rad, Mississauga, ON, Canada), and transferred onto a nitrocellulose membrane. The membrane is incubated with primary antibody and subsequently incubated with HRP-conjugated secondary antibody. Finally, ECL detection is carried out, and the results were recorded on X-ray film by autophotography.
(§2) The 23 top-score molecules from the first round of virtual screening are initially tested in the cell-based ARE-driven luciferase assay. Specifically, HepG2 cell line are transfected with ARE-driven pGL3 luciferase vector and then exposed to individual test compounds at 10, 50 μM. Classical Nrf2 inducers EQ and SFN were used as the positive controls. […] To examine the effect of these active compounds on Nrf2 nuclear translocation, Western blot analysis is used to measure the nuclear level of Nrf2 after cells are exposed to these compounds.

[2] = tested on: ARE-driven luciferase activity (Nrf2) in HepG2 cells; experiment: ARE-driven luciferase assay in HepG2 cells; details: test compounds at 10, 50 μM, 24 h
Method: (§3) One representative ARE (A2-ARE) from GSTA2 is used in this work, and A2-ARE are cloned into the KpnI and MluI sites of pGL3-promoter vector, which contains a heterologous SV40 promoter and a firefly luciferase reporter gene. Cells are seeded at 1×10^5 per well using 24-well plate, grown overnight before being transfected transfected with pGL3 and other designated constructs using LipofectAMINE (Invitrogen) for 5 h. The plasmid pRL, containing a renilla reniformis luciferase reporter gene, is cotransfected as internal control to correct transfection efficiency. After transfection, cells are treated with test compounds at designated concentrations for 24 h prior to harvesting. The cells are then washed twice with phosphate-buffered saline and harvested in 100 uL of 1× passive lysis buffer (Promega, Madison, Wis., USA). The luciferase activities are analyzed in 20-uL cell extracts with the Dual luciferase Assay™ kit (Promega) on a Lumat LB 9507 luminometer (Berthold Technologies, Oak Ridge, Tenn., USA). The related luciferase activities are expressed as a ratio of the pGL3 reporter activity to that of the control plasmid pRL. The fold of induction is expressed as ratio of induction from the treated cells versus the untreated. Values represent measurements from three independent experiments performed in triplicate and are presented as the mean±SEM.
as §2

MCF-7 cells [3] = experiment: MCF-7 cell viability (MTT, 72 h); details: dose range 10 nM to 10 μM
Method: FIG. 9 illustrates MCF-7 cell survival curves for BM10, BM31, BM40 and SFN. MCF-7 cells were treated with test compounds at designated concentrations for 72 hours. Viable cells were evaluated by MTT assays. Experiments were performed in triplicate and repeated twice.
(§4) Cells are seeded at 4×10^3 per well using 96-well plate, grown overnight before being treated with test compounds for 72 h. Viable cells are measured by MTT assays. To evaluate the ability of test compounds in protecting MCF-7 cells from the damage of B[a]P, MCF-7 cells are seeded at 2×10^3 per well using 96-well plate, grown overnight before being treated with test compounds at designed concentration for 48 h. Next, cells are treated with 160 nM B[a]P in the presence of test compound for another 72 h. The viable cells are measured using MTT assays. Experiments are performed in triplicate and repeated twice.

[4] = tested on: γ-glutamylcysteine synthetase (GCS), a Nrf2-regulated protein, in HepG2 cells; experiment: Western blot of γ-glutamylcysteine synthetase (GCS) in HepG2 whole cell extracts; details: 24 h; for induction of GCS: whole cell protein extracts
Method: FIG. 3B illustrates endogenous γ-glutamylcysteine synthetase (GCS), a Nrf2-regulated protein, in whole cell protein extracts, detected by Western blotting. HepG2 cells were treated with EQ, SFN, DMSO, BM10, BM31 and BM40 at designated concentrations for 24 h.
as §1
Nrf2 is a master transcription factor regulating multiple ARE-regulated antioxidant and detoxifying enzymes, such as GCS, glutathione S-transferase (GST), NAD(P)H quinone oxidoreductase-1 (NQO1), and UDP glucuronosyltransferase (UGT), etc. The effects of our lead compounds on GCS are examined.

MCF-7 cells [5] = experiment: Protection of MCF-7 cells from cytotoxic damage of B[a]P (MTT); details: low dose range 50 nM to 200 nM, 48 h pre-incubation, then 160 nM B[a]P + compound 72 h
Method: as §4
To test the capability of BM compounds in protecting against the cytotoxic effect of B[a]P, cellular assays using MCF-7 cells are performed. Incubation of MCF-7 cells with various concentrations of BM31 for 48 hours is followed by incubation with 160 nM B[a]P+the BM31 for 72 hours. MTT assays are performed to evaluate the protection effect of the BM31. DMSO without B[a]P was used as a control.

Nrf2/Keap1 complex = molecular target: T1, Nrf2/Keap1 complex (Homo sapiens, UniProt Q14145); experiment: Co-IP of Keap1 and Nrf2 in co-transfected 293T cells; details: 293T cells co-transfected with Nrf2 and Keap1; 24 h; BM31 50 μM, SFN 5 μM
T1 construct: expressed in transfected cells; host or cells: 293T
Method: FIG. 5 illustrates 293T cell lysates immunoprecipitated with Keap1 antibody and the eluted proteins were immunoblotted with Nrf2 antibody. Lane 1: Nrf2 transfection; Lanes 2, 3, 4: Nrf2 and Keap1 co-transfection. Lanes 2, 3, 4: treated with DMSO, BM31 (50 μM) and SFN (5 μM), respectively.
To study the effect of BM31 on the interaction of Keap1 and Nrf2, Co-IP experiments are performed. 293T cells are successfully transfected and achieved high Nrf2 expression in this cell line. In the co-IP experiments, 293T cells are co-transfected with Nrf2 and Keap1 expression vectors. After transfection, the cells are treated with SFN and BM31 for 24 h before harvesting. The cell lysates are used for IP with Keap1 antibody. The eluted proteins are immunoblotted with Nrf2 antibody. […] For example, arsenic induces the Nrf2-dependent response through markedly enhancing the interaction between Keap1 and Cul3, subunits of the E3 ubiquitin ligase for Nrf2, which leads to impaired dynamic assembly/disassembly of the E3 ubiquitin ligase and thus decreases its ligase activity, resulting in inhibition of Nrf2 ubiquitination and degradation. Our further work will determine whether BM31 induces Nrf2 via a mechanism similar to that of arsenic.

[6] = tested on: Keap1 mutants (C257S, C273S, C288S, C297S) / ARE-driven luciferase in 293T cells; experiment: ARE-driven luciferase assay in 293T cells co-transfected with Nrf2 and Keap1 IVR cysteine mutants; details: for effect of Keap1 C273S and C288S mutations on activation of ARE-driven luciferase activities / effect of Keap1 C297S mutant on potency in activating ARE-driven luciferase activities: 293T cells
Method: as §3
Keap1 is a multi-domain protein, in which the IVR domain contains 4 cysteine residues, C257, C273, C288 and C297. The known Nrf2 inducers may interact with these cysteine residues in the IVR domain, resulting in conformational change of Keap1 and ultimately activating Nrf2. To investigate the role of these active cysteine residues in the Nrf2-inducing activity of BM31, 4 Keap1 mutants (C257S, C273S, C288S and C297S) are tested. BM31 is selected for this and further investigation because the dose-response is consistent for its capability in inducing Nrf2 nuclear translocation and induction of enzyme GCS (FIG. 3). Co-transfection experiments to investigate the effects of Keap1 IVR cysteine mutants on ARE-driven luciferase activities are performed. Specifically, 293T cells are co-transfected with ARE-driven pGL3 luciferase report vector, Keap1 vector with and without the Nrf2 expression vector (FIG. 4). After transfection, the cells are exposed to BM31 at 50 μM for 16 h before harvest. The cell lysates are used for measurement of ARE-driven luciferase activities. […] Our conclusion is that BM31 targets the binding site around C297 in the IVR domain of Keap1, and mutation of residue C297 partially abolishes the Nrf2-inducing effect of BM31.

T1 sequence (Q14145 whole entry): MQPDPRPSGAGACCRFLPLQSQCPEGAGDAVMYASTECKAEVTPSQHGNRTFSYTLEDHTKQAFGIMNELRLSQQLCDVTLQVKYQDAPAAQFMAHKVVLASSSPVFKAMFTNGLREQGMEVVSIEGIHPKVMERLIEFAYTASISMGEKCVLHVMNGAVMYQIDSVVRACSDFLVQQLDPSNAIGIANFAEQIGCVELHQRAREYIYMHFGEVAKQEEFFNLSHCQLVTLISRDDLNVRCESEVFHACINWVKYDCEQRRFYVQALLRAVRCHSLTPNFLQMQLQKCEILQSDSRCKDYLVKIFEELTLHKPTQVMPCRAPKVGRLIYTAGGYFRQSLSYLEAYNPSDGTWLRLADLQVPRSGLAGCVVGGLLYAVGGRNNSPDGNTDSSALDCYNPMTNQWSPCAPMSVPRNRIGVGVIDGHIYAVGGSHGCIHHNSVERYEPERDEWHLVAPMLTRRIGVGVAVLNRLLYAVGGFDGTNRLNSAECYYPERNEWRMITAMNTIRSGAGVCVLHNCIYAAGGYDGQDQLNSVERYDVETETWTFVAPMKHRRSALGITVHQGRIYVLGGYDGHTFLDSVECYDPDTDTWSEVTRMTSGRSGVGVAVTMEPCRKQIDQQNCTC
T1 sequence (Q16236 whole entry partner): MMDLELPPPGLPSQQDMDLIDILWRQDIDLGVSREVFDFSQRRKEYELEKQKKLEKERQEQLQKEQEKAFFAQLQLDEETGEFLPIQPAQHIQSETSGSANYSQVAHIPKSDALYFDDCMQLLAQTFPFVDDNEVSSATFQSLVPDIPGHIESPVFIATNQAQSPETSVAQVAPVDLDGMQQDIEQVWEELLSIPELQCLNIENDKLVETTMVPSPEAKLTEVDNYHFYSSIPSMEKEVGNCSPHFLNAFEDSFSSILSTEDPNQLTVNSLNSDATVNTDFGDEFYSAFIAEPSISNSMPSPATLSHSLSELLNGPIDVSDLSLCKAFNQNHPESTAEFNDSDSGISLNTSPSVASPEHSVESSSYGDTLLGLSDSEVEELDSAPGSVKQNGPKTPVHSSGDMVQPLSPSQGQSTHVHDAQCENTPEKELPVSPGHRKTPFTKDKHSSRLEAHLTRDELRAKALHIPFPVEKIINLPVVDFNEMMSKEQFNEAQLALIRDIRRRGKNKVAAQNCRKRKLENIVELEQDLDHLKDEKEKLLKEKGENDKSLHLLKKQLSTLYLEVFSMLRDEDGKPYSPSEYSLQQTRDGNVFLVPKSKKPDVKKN

SMILES | induction of Nrf2 nuclear translocation (nuclear Nrf2 by Western blot) [1] | induction of ARE-driven luciferase activities [2] | cytotoxic effects on proliferation of MCF-7 cells (MCF-7 cells [3]) | potency in elevating nuclear Nrf2 compared with SFN [1] | induction of GCS [4] | also measured
Cc1n[nH]c2c(Cc3ccco3)nnc(O)c12 [BM18] | modest activity; also recorded: triggered Nrf2 nuclear translocation | potently induce |  |  |  | 
Ic1ncnc2c1ncn2[C@H]1CCCS1 [BM10] | most potent; also recorded: triggered Nrf2 nuclear translocation |  | do not have cytotoxic effects | comparable to that of SFN | modest potency; also recorded: induced expression | 
O=C1C[C@@H](c2ccccc2)Oc2cc(O)cc(O)c21 [BM5] | triggered Nrf2 nuclear translocation |  |  |  |  | 
Clc1ncnc2c1ncn2[C@H]1CCCS1 [BM31] | potent Nrf2 inducers; also recorded: triggered Nrf2 nuclear translocation |  | do not have cytotoxic effects | comparable to that of SFN | induced expression | protection of MCF-7 cells from cytotoxic damage of B[a]P (MCF-7 cells [5]): significant protection; also recorded: provides protections; effect on Nrf2/Keap1 complex (Keap1 IP, Nrf2 immunoblot) (Nrf2/Keap1 complex): increases the Nrf2/Keap1 complex; effect of Keap1 C273S and C288S mutations on activation of ARE-driven luciferase activities [6]: do not completely abolish; effect of Keap1 C297S mutant on potency in activating ARE-driven luciferase activities [6]: limits the potency; also recorded: abolished the Nrf2 induction activity; induction of ARE-driven luciferase activities with C257S, C273S or C288S mutant Keap1 ([6]; 293T cells co-transfected with ARE-pGL3, Nrf2 and mutant Keap1, BM31 50 μM, 16 h): potently induces; potency in inducing GCS compared with SFN and EQ [4]: comparable to that of SFN and EQ
C[S+]([O-])CCCCN=C=S (stereo not shown) [SFN, sulforaphane, reference compound] |  |  |  |  |  | effect on Nrf2/Keap1 complex (Keap1 IP, Nrf2 immunoblot) (Nrf2/Keap1 complex): increases the Nrf2/Keap1 complex; effect of Keap1 C273S and C288S mutations on activation of ARE-driven luciferase activities [6]: do not completely abolish; effect of Keap1 C297S mutant on potency in activating ARE-driven luciferase activities [6]: did not affect the potency
O=C(c1ccccc1)C1COc2ccccc2C1O (stereo not shown) [BM40] | potent Nrf2 inducers; also recorded: triggered Nrf2 nuclear translocation |  | do not have cytotoxic effects | comparable to that of SFN | induced expression | potency in inducing GCS compared with SFN and EQ [4]: comparable to that of SFN and EQ
Cc1nnc(Cc2ccco2)c2[nH]nc(C)c12 [BM19] | triggered Nrf2 nuclear translocation |  |  |  |  | 
Nc1nc(S)c2ncn(C3CCCCC3)c2n1 [BM9] | modest activity; also recorded: triggered Nrf2 nuclear translocation |  |  |  |  | 
Nc1nc(N)c2ncn(Cc3ccccc3)c2n1 [BM6] | modest activity; also recorded: triggered Nrf2 nuclear translocation | potently induce |  |  |  | 
COc1ccc2nc3cc(Cl)ccc3c(C#N)c2c1 [BM4] | modest activity; also recorded: triggered Nrf2 nuclear translocation | potently induce |  |  |  | 
